Results from PubChem BioAssay (NCI).
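Values below derive from 48-hour exposures of cells grown in 96-well plates, with endpoints linearly interpolated between the two concentrations bracketing the appropriate inhibition level. Here, GI50 denotes the concentration required for 50% inhibition of growth. Definition used: TGI = concentration required for complete inhibition of growth.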

Tests used:
Experiment in all cases: NCI anticancer screen, dose series, 48 h
786-0 renal = tested on: 786-0 renal
A498 renal = tested on: A498 renal
A549 NSCLC = tested on: A549 NSCLC
ACHN renal = tested on: ACHN renal
BT-549 breast = tested on: BT-549 breast
CAKI-1 renal = tested on: CAKI-1 renal
CCRF-CEM leukemia = tested on: CCRF-CEM leukemia
COLO 205 colon = tested on: COLO 205 colon
DU-145 prostate = tested on: DU-145 prostate
HCC-2998 colon = tested on: HCC-2998 colon
HCT-116 colon = tested on: HCT-116 colon
HCT-15 colon = tested on: HCT-15 colon
HL-60(TB) leukemia = tested on: HL-60(TB) leukemia
HOP-62 NSCLC = tested on: HOP-62 NSCLC
HS 578T breast = tested on: HS 578T breast
HT29 colon = tested on: HT29 colon
IGROV1 ovarian = tested on: IGROV1 ovarian
K-562 leukemia = tested on: K-562 leukemia
KM12 colon = tested on: KM12 colon
M14 melanoma = tested on: M14 melanoma
MALME-3M melanoma = tested on: MALME-3M melanoma
MCF7 breast = tested on: MCF7 breast
MDA-MB-231 breast = tested on: MDA-MB-231 breast
MDA-MB-435 = tested on: MDA-MB-435
MOLT-4 leukemia = tested on: MOLT-4 leukemia
NCI-H226 lung = tested on: NCI-H226 lung
NCI-H23 lung = tested on: NCI-H23 lung
NCI-H460 lung = tested on: NCI-H460 lung
NCI-H522 lung = tested on: NCI-H522 lung
OVCAR-3 ovarian = tested on: OVCAR-3 ovarian
OVCAR-4 ovarian = tested on: OVCAR-4 ovarian
OVCAR-5 ovarian = tested on: OVCAR-5 ovarian
OVCAR-8 ovarian = tested on: OVCAR-8 ovarian
PC-3 prostate = tested on: PC-3 prostate
RPMI-8226 leukemia = tested on: RPMI-8226 leukemia
RXF 393 renal = tested on: RXF 393 renal
SF-268 CNS = tested on: SF-268 CNS
SF-295 CNS = tested on: SF-295 CNS
SF-539 CNS = tested on: SF-539 CNS
SK-MEL-28 melanoma = tested on: SK-MEL-28 melanoma
SK-MEL-5 melanoma = tested on: SK-MEL-5 melanoma
SK-OV-3 ovarian = tested on: SK-OV-3 ovarian
SN12C renal = tested on: SN12C renal
SNB-19 CNS = tested on: SNB-19 CNS
SNB-75 CNS = tested on: SNB-75 CNS
SR leukemia = tested on: SR leukemia
SW-620 colon = tested on: SW-620 colon
T-47D breast = tested on: T-47D breast
TK-10 renal = tested on: TK-10 renal
U251 CNS = tested on: U251 CNS
UACC-257 melanoma = tested on: UACC-257 melanoma
UACC-62 melanoma = tested on: UACC-62 melanoma
UO-31 renal = tested on: UO-31 renal

SMILES: COc1cc(-c2cc(-c3nc4ccc(Cl)cc4[nH]3)[nH]n2)cc(OC)c1OC
- GI50 (786-0 renal): 5.32 µM
- TGI (786-0 renal): 18.3 µM
- GI50 (A498 renal): 2.1 µM
- TGI (A498 renal): 11 µM
- GI50 (A549 NSCLC): 2.96 µM
- TGI (A549 NSCLC): 13.1 µM
- GI50 (ACHN renal): 2.96 µM
- TGI (ACHN renal): 12.9 µM
- GI50 (BT-549 breast): 2.54 µM
- TGI (BT-549 breast): 8.35 µM
- GI50 (CAKI-1 renal): 2.8 µM
- TGI (CAKI-1 renal): 11.1 µM
- GI50 (CCRF-CEM leukemia): 2.48 µM
- TGI (CCRF-CEM leukemia): 7.56 µM
- GI50 (COLO 205 colon): 3.18 µM
- TGI (COLO 205 colon): 10 µM
- GI50 (DU-145 prostate): 3.27 µM
- TGI (DU-145 prostate): 13.4 µM
- GI50 (HCC-2998 colon): 5.98 µM
- TGI (HCC-2998 colon): 18.7 µM
- GI50 (HCT-116 colon): 3.45 µM
- TGI (HCT-116 colon): 12.2 µM
- GI50 (HCT-15 colon): 2.9 µM
- TGI (HCT-15 colon): 13.2 µM
- GI50 (HL-60(TB) leukemia): 2.49 µM
- TGI (HL-60(TB) leukemia): 7.47 µM
- GI50 (HOP-62 NSCLC): 3.11 µM
- TGI (HOP-62 NSCLC): 10.7 µM
- GI50 (HS 578T breast): 3.58 µM
- TGI (HS 578T breast): 45.5 µM
- GI50 (HT29 colon): 4.14 µM
- TGI (HT29 colon): 16.4 µM
- GI50 (IGROV1 ovarian): 3.42 µM
- TGI (IGROV1 ovarian): 16.3 µM
- GI50 (K-562 leukemia): 3.04 µM
- TGI (K-562 leukemia): > 100 µM
- GI50 (KM12 colon): 3.45 µM
- TGI (KM12 colon): 10.6 µM
- GI50 (M14 melanoma): 2.92 µM
- TGI (M14 melanoma): 9.96 µM
- GI50 (MALME-3M melanoma): 2.58 µM
- TGI (MALME-3M melanoma): 8.32 µM
- GI50 (MCF7 breast): 2.17 µM
- TGI (MCF7 breast): 7.75 µM
- GI50 (MDA-MB-231 breast): 3.94 µM
- TGI (MDA-MB-231 breast): 24.3 µM
- GI50 (MDA-MB-435): 3.3 µM
- TGI (MDA-MB-435): 12.7 µM
- GI50 (MOLT-4 leukemia): 2.02 µM
- TGI (MOLT-4 leukemia): 4.82 µM
- GI50 (NCI-H226 lung): 1.88 µM
- TGI (NCI-H226 lung): 7.23 µM
- GI50 (NCI-H23 lung): 2.73 µM
- TGI (NCI-H23 lung): 8.89 µM
- GI50 (NCI-H460 lung): 3.65 µM
- TGI (NCI-H460 lung): 14 µM
- GI50 (NCI-H522 lung): 1.9 µM
- TGI (NCI-H522 lung): 5.73 µM
- GI50 (OVCAR-3 ovarian): 3.5 µM
- TGI (OVCAR-3 ovarian): 12.1 µM
- GI50 (OVCAR-4 ovarian): 1.38 µM
- TGI (OVCAR-4 ovarian): 4.37 µM
- GI50 (OVCAR-5 ovarian): 12.1 µM
- TGI (OVCAR-5 ovarian): 30.2 µM
- GI50 (OVCAR-8 ovarian): 2.26 µM
- TGI (OVCAR-8 ovarian): 5.59 µM
- GI50 (PC-3 prostate): 2.47 µM
- TGI (PC-3 prostate): 8.29 µM
- GI50 (RPMI-8226 leukemia): 1.65 µM
- TGI (RPMI-8226 leukemia): 4.21 µM
- GI50 (RXF 393 renal): 3.26 µM
- TGI (RXF 393 renal): 14.5 µM
- GI50 (SF-268 CNS): 3.6 µM
- TGI (SF-268 CNS): 13.2 µM
- GI50 (SF-295 CNS): 2.35 µM
- TGI (SF-295 CNS): 11.2 µM
- GI50 (SF-539 CNS): 4.66 µM
- TGI (SF-539 CNS): 18.3 µM
- GI50 (SK-MEL-28 melanoma): 2.42 µM
- TGI (SK-MEL-28 melanoma): 7.11 µM
- GI50 (SK-MEL-5 melanoma): 1.62 µM
- TGI (SK-MEL-5 melanoma): 3.48 µM
- GI50 (SK-OV-3 ovarian): 4.47 µM
- TGI (SK-OV-3 ovarian): 14.3 µM
- GI50 (SN12C renal): 3.06 µM
- TGI (SN12C renal): 15.6 µM
- GI50 (SNB-19 CNS): 7.25 µM
- TGI (SNB-19 CNS): 20.4 µM
- GI50 (SNB-75 CNS): 2.71 µM
- TGI (SNB-75 CNS): 10.4 µM
- GI50 (SR leukemia): 3.32 µM
- TGI (SR leukemia): 37.6 µM
- GI50 (SW-620 colon): 4.99 µM
- TGI (SW-620 colon): 18.6 µM
- GI50 (T-47D breast): 1.58 µM
- TGI (T-47D breast): 4.54 µM
- GI50 (TK-10 renal): 3.52 µM
- TGI (TK-10 renal): 15.8 µM
- GI50 (U251 CNS): 3.38 µM
- TGI (U251 CNS): 14.1 µM
- GI50 (UACC-257 melanoma): 2.6 µM
- TGI (UACC-257 melanoma): 7.55 µM
- GI50 (UACC-62 melanoma): 1.97 µM
- TGI (UACC-62 melanoma): 4.95 µM
- GI50 (UO-31 renal): 2.64 µM
- TGI (UO-31 renal): 11.2 µM
